Results on 15 compounds are retold here after patent US9932324B2, “Substituted benzimidazolium compounds useful in the treatment of respiratory diseases” (Boehringer Ingelheim International GmbH, priority 2015, dated 2018).

Data set [1] is described as follows: Permeability in CALU-3 cells. The data set is classed as in vitro ADME. The conditions noted are these: human, CALU-3 monolayers, pH 7.4, 37° C., 10 μM compound; for Papp A→B at 90 min, 10 μM: apical-to-basal; for Papp B→A at 90 min, 10 μM: basal-to-apical. As to the method:
Permeability in CALU-3 Cells:
Permeability measurements across polarized, confluent CALU-3 cell monolayers grown on permeable filter supports are used to provide information on the potential of a compound to pass the lung epithelium. Apparent permeability coefficients (Papp) of the compounds across the CALU-3 cell monolayers are measured (pH 7.4, 37° C.) in apical-to-basal (AB) and basal-to-apical (BA) transport direction.
CALU-3 cells (1-2×10^5 cells/1 cm^2 area) are seeded on filter inserts (Costar transwell polycarbonate filters, 0.4 μm pore size) and cultured (for 10-12 days DMEM) until tight monolayers are formed. Compounds of interest are dissolved in appropriate solvent (DMSO, 10 mM stock solution). Stock solutions are diluted with HTP-4 buffer (128.13 mM NaCl, 5.36 mM KCl, 1 mM MgSO4, 1.8 mM CaCl2, 4.17 mM NaHCO3, 1.19 mM Na2HPO4 x 7H2O, 0.41 mM NaH2PO4xH2O, 15 mM HEPES, 20 mM glucose, 0.25% BSA, pH 7.4) to prepare the transport solutions (10 μM compound, final DMSO <=0.5%). The transport solution (TL) is applied to the apical or basolateral donor side for measuring A-B or B-A permeability (3 filter replicates), respectively. The receiver side contains the same buffer as the donor side. After 30 min of accommodation, samples are collected at the start t0=0 min and at the end of the experiment tn=90 min from the donor and at 0, 30, 60, and 90 min also from the receiver chamber. Volume removed is […] by HTP-4 buffer. The compound concentration in the samples is measured by HPLC-MS/MS or scintillation counting. The permeability coefficient (Papp) and efflux ratio are calculated according to: Papp [cm/s]=(concentration receiver [nM]*volume receiver [mL]/time interval [sec])*(1/filter area)*(1/donor concentration [nM]).

Data set [2] addresses T1, ENaC (Epithelial Sodium Channel) in mouse kidney M-1 cells (Mus musculus, UniProt Q61180+Q9WU38+Q9WU39).
T1 construct: Mouse kidney M-1 cells were cultivated in DMEM containing 5% FCS and 5 μM dexamethasone; endogenous in cells; host or cells: mouse kidney M-1 cells
T1 sequence (Q61180 1-699): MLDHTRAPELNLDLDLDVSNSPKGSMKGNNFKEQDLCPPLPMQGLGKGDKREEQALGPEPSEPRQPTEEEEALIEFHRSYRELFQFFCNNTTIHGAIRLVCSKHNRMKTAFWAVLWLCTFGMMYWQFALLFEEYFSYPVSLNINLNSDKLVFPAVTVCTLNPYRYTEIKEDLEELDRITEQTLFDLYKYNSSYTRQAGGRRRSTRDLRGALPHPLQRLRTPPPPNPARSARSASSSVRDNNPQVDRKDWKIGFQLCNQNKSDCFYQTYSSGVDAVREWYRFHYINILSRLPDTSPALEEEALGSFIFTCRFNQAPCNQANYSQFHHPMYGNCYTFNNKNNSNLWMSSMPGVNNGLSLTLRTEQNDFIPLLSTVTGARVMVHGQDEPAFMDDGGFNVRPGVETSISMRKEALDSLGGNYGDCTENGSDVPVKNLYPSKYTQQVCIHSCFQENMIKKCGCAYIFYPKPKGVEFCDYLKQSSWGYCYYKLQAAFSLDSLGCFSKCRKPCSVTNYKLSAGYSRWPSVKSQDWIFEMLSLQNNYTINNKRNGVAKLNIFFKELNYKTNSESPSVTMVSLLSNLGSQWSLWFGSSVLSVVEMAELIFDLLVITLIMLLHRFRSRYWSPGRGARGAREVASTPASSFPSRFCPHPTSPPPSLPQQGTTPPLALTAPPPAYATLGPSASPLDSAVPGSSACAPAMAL
T1 sequence (Q9WU38 1-638): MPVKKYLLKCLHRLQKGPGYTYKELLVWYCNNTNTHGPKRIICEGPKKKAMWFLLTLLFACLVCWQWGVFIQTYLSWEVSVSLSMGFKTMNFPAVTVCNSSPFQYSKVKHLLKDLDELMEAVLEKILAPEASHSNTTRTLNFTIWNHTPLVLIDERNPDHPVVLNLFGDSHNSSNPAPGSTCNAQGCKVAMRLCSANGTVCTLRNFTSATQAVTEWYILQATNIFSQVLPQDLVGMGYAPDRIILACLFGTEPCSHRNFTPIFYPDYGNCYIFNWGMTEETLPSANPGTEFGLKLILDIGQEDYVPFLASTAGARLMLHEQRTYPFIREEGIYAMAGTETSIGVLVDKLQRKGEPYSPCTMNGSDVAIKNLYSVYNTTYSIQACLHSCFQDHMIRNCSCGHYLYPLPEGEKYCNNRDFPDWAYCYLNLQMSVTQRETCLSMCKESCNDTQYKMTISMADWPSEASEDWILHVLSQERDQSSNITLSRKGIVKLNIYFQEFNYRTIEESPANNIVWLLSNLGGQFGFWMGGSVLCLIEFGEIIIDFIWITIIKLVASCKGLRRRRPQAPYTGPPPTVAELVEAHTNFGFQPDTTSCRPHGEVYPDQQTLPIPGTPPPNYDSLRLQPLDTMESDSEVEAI
T1 sequence (Q9WU39 1-655): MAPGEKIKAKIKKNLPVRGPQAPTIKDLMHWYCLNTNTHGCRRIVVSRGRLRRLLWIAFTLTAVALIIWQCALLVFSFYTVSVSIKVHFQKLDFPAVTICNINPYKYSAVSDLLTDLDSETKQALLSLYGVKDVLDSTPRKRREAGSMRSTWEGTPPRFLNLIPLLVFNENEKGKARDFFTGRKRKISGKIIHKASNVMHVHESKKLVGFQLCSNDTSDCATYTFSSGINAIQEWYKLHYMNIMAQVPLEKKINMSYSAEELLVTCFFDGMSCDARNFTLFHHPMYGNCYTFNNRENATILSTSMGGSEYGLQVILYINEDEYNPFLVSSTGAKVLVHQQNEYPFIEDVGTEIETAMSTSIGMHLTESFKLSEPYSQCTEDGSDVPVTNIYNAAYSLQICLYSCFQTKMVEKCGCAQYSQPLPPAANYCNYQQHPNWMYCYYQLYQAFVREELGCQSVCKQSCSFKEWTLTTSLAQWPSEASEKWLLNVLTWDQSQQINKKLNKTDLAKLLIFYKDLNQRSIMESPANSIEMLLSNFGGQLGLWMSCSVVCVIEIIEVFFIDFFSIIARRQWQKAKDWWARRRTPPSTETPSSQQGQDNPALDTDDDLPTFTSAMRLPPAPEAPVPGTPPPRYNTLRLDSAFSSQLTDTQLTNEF
In words: Ussing Chamber assay (short circuit current, amiloride sensitive I_SC). The data set is classed as cell-based. The conditions noted are these: apical administration, 37° C. As for the experimental part:
The IC50 values of the example compounds given above were determined in the Ussing Chamber assay.
Ussing Chamber: Mouse kidney M-1 cells were cultivated in DMEM containing 5% FCS and 5 μM dexamethasone for 10 to 12 days on polyester transwell filters. Filters were inserted into a teflon-coated well-plate which fit into the ussing chamber system. Prior to measurement the medium of M-1 cells was replaced with Caco-2 transport buffer (Invitrogen, Germany). During measurements, the Ussing chamber temperature was kept at 37° C. Short circuit currents (I_sc) were measured in the voltage-clamp mode with the software package Lab View for data acquisition and analysis. The transepithelial electrical resistance (TEER) was determined by the application of voltage steps of ±5 mV every 5 sec. Compounds were administered at a final concentration of 3 μM or at increasing concentrations (1-3-10 μM) to the apical solution. At the end of each experiment the amiloride sensitive I_SC was measured by adding 3 μM amiloride to the apical compartment. Results are expressed as inhibition in percent of the amiloride effect or as IC50.

Structures are written as SMILES.

As to `CCn1c(CNC(=O)c2nc(Cl)c(N)nc2N)[n+](CC)c2c(C(=O)NC3CCNCC3)cccc21.[Cl-]` [Example 4.03], in data set [1], the apical-to-basolateral permeability (Papp A→B) – broadly, how fast a substance crosses the layer from the apical side – at 90 min, 10 μM is 0.08 ×10⁻⁶ cm/s and the basolateral-to-apical permeability (Papp B→A) (in general, how fast a substance crosses the layer from the basolateral side) at 90 min, 10 μM turned out to be 0.1 ×10⁻⁶ cm/s. Moreover, in data set [2], it took 5 nM to reach half-maximal inhibition (IC50). For `CC[n+]1c(CNC(=O)c2nc(Cl)c(C)nc2N)n(C[C@@H]2CCCO2)c2cccc(OCC(=O)NC3CCN(C(=O)OC(C)(C)C)CC3)c21` [Example 1.07], the IC50 (in general, the midpoint of a concentration-inhibition curve) in data set [2] worked out at 2 nM. In data set [2], `CCn1c(CNC(=O)c2nc(Cl)c(N)nc2N)[n+](CC)c2c(C(=O)N3CCN(C(=O)OC(C)(C)C)CC3)cccc21` [Example 3.04] came in with an IC50 of 3 nM. In data set [1], `CC[n+]1c(CNC(=O)c2nc(Cl)c(N)nc2N)n(C[C@@H]2CCCO2)c2cccc(OCC(=O)N(C)Cc3nc(C)ccc3[O-])c21` [Example 1.03] gave a Papp A→B at 90 min, 10 μM of 0.3 ×10⁻⁶ cm/s and a basolateral-to-apical permeability (Papp B→A) at 90 min, 10 μM of 0.5 ×10⁻⁶ cm/s. Further, the IC50 in data set [2] worked out at 31 nM.

In data set [1], `CCn1c(CNC(=O)c2nc(Cl)c(N)nc2N)[n+](CC)c2c(C(=O)NCCCN)cccc21.Cl.[Cl-]` [Example 6.01] had a Papp A→B at 90 min, 10 μM of 0.1 ×10⁻⁶ cm/s and a Papp B→A at 90 min, 10 μM of 0.09 ×10⁻⁶ cm/s. The same compound returned an IC50 in data set [2] of 5 nM. In the case of `CC[n+]1c(CNC(=O)c2nc(Cl)c(N)nc2N)n(C[C@@H]2CCCO2)c2cccc(OCC(=O)NC3CCNCC3)c21.O=C(O)C(F)(F)F.O=C([O-])C(F)(F)F` [Example 4.01], in data set [1], the Papp A→B at 90 min, 10 μM came to 0.3 ×10⁻⁶ cm/s and the Papp B→A at 90 min, 10 μM was 0.3 ×10⁻⁶ cm/s. This compound showed an IC50 in data set [2] of 1 nM. The compound `CC[n+]1c(CNC(=O)c2nc(Cl)c(N)nc2N)n(CCOCCO)c2cccc(OC(CO)CO)c21` [Example 5.01] showed a concentration for half-maximal inhibition (IC50) in data set [2] of 16 nM. In data set [1], `CCn1c(CNC(=O)c2nc(Cl)c(N)nc2N)[n+](CC)c2c(C(=O)NCCN(C)C)cccc21.[Cl-]` [Example 3.05] yielded an apical-to-basolateral permeability (Papp A→B) at 90 min, 10 μM of 0.04 ×10⁻⁶ cm/s and a Papp B→A at 90 min, 10 μM of 0.06 ×10⁻⁶ cm/s. For the same compound, the half-inhibitory concentration (IC50) in data set [2] amounted to 6 nM. Compound `CCn1c(CNC(=O)c2nc(Cl)c(N)nc2N)[n+](CC)c2c(C(=O)N(C)Cc3nc(C)ccc3O)cccc21` [Example 3.01] returned a 50% inhibitory concentration (IC50) in data set [2] of 2 nM. For `CCn1c(CNC(=O)c2nc(Cl)c(N)nc2N)[n+](CC)c2c(C(=O)NCCCNC(=O)OC(C)(C)C)cccc21` [Example 3.03], it took 5 nM to reach half-maximal inhibition in data set [2] (IC50). `CC[n+]1c(CNC(=O)c2nc(Cl)c(N)nc2N)n(C[C@@H]2CCCO2)c2cccc(OCC(=O)N3C[C@H](O)[C@@H](O)C3)c21` [Example 1.01] displayed an IC50 in data set [2] of 36 nM. In the case of `CC[n+]1c(CNC(=O)c2nc(Cl)c(N)nc2N)n(CCOCCO)c2cccc(OCC(=O)NC3CCNCC3)c21` [Example 7.01], half-maximal inhibition in data set [2] (IC50) required 11 nM. `CCn1c(CNC(=O)c2nc(Cl)c(N)nc2N)[n+](CC)c2c(C(=O)NC3CCN(C(=O)OC(C)(C)C)CC3)cccc21` [Example 3.02] came in with an IC50 in data set [2] of 3 nM. Compared with the last compound, the IC50 is about 3.7-fold lower.

Turning to `CC[n+]1c(CNC(=O)c2nc(Br)c(N)nc2N)n(C[C@@H]2CCCO2)c2cccc(OCC(=O)N3C[C@H](O)[C@@H](O)C3)c21.O=C([O-])C(F)(F)F` [Example 2.01], in data set [1], the apparent permeability from apical to basolateral (Papp A→B) at 90 min, 10 μM was found to be 0.2 ×10⁻⁶ cm/s and the Papp B→A at 90 min, 10 μM turned out to be 0.2 ×10⁻⁶ cm/s. Also, in data set [2], the IC50 turned out to be 24 nM. In data set [1], `CCn1c(CNC(=O)c2nc(Cl)c(N)nc2N)[n+](CC)c2c(C(=O)N3CCNCC3)cccc21.[Cl-]` [Example 4.02] displayed a Papp A→B at 90 min, 10 μM of 0.2 ×10⁻⁶ cm/s and a basolateral-to-apical permeability (Papp B→A) at 90 min, 10 μM of 0.1 ×10⁻⁶ cm/s. The same compound displayed an IC50 in data set [2] of 3 nM.
